The source of these data is patent US7687640B2, “Cinnamide compound” (Eisai R&D Management Co., Ltd., priority 2004, dated 2010).

This experiment has as its system Aβ42 production. The experiment can be described thus: Quantification of Aβ peptide (Aβx-42 ELISA) in neuronal culture from rat fetus brain. The class given is cell-based. Conditions: primary neuronal culture from cerebral cortices of embryonic day 18 Wistar rat; compound added on day 4 of culture, incubation for 3 days; Aβx-42 in medium by ELISA, % of CTRL; read-out: Effect to Reduce Aβ42 Production IC50. The procedure: Quantification of Aβ Peptide in Neuronal Culture from Rat Fetus Brain (1)
Primary neuronal cultures were prepared from cerebral cortices from embryonic day 18 Wistar rat (Charles River Japan, Yokohama, Japan). The embryos were aseptically removed from a pregnant rat under ether anesthesia. The brain was isolated from the embryo, and immersed in ice-cold L-15 medium (for example, Invitrogen Corp. Cat #11415-064, Carlsbad, Calif., USA, or SIGMA L1518, St. Louis. MO, USA). The cerebral cortex was collected under a stereoscopic microscope from the brain. The cerebral cortex fragments collected were subjected to enzyme treatment in an enzyme solution containing 0.25% trypsin (for example, Invitrogen Corp., Cat #15050-065, Carlsbad, Calif., USA) and 0.01% DNase (for example, Sigma D5025, St. Louis. MO, USA) at 37 C for 30 minutes to allow for cell dispersion. The enzyme reaction was terminated by addition of same volume of heat-inactivated horse serum. After centrifugation at 1500 rpm for 5 minutes, the supernatant was removed and 5-10 ml of medium was added to the cell pellet. Neurobasal Medium™ (Invitrogen Corp., Carlsbad, Calif., USA) supplemented with 2% B-27 supplement (Invitrogen Corp., Carlsbad, Calif., USA), 25 μM 2-mercaptoethanol (2-ME, WAKO, 139-06861, Osaka, Japan), 0.5 mM L-glutamine (for example, Invitrogen Corp., Cat # 25030-081, Carlsbad, Calif., USA), and 1% antibiotics-antimycotics (Invitrogen Corp., Cat # 15240-062, Carlsbad, Calif., USA) was used as the culture medium (Neurobasal/B27/2-ME). At the compound evaluation, the medium of the same composition not to add 2-ME alone (Neurobasal/B27) was used. The cell pellet was triturated by mild pipetting. Remaining cell pellet was removed by filtering through a 40-μm nylon mesh (Cell Strainer, Cat # 35-2340, Becton Dickinson Labware, Franklin Lakes, N.J., USA) and a neuronal cell suspension was obtained. The neuronal cell suspension was diluted with the Neurobasal/B27/2-ME medium and then plated in a volume of 100 μl/well to obtain an initial cell density of 5×10^5 cells/cm^2 in a 96-well polystyrene plate pre-coated with poly-L or D-lysine (for example, Falcon MICROTEST Tissue culture plate 96 well flat bottom with low evaporation lid (Cat # 35-3075, Becton Dickinson Labware, Franklin Lakes, N.J., USA) coated with poly-L-lysine using the method shown below, or BIOCOAT™ cell environments Poly-D-lysine cell ware 96-well plate, Cat # 35-6461, Becton Dickinson Labware, Franklin Lakes, N.J., USA). Poly-L-lysine coating was carried out as follows. Poly-L-lysine (SIGMA P2636, St. Louis, Mo., USA) solution at 100 μg/ml was prepared aseptically with 0.15 M Borate buffer (pH 8.5). The solution was added to a 96-well polystyrene […] at 50-100 μl/well and incubated at room temperature for one hour or more, or at 4 C overnight or longer. This was rinsed 4 or more times with sterile water, and then dried or rinsed with, for example, sterile PBS or medium, and used for plating cells. Cells were cultured for one day in an incubator of 5% CO2-95% air at 37 C, the entire amount of the medium was exchanged with fresh Neurobasal/B27/2-ME, and the cells were then cultured for further 3 days.
Drugs were added on day 4 of culture as follows. The entire amount of the medium was removed from culture well, and Neurobasal/B27 medium was added at 180 μl/well. The test compound dimethyl sulfoxide (hereinafter abbreviated as DMSO) solution was diluted with Neurobasal/B27 so than it would be 10-fold of the desired final concentration. A diluent was added at 20 μl/well and mixed well. The final concentration of DMSO was 1% or less. Only DMSO was added to the control group.
After incubation for 3 days, the entire amount of the medium was collected as ELISA sample. This was used without any dilution for Aβx-42 measurement, and diluted to 5-fold with the diluent supplied with ELISA kit for Aβx-40 measurement, before subjecting to respective ELISA assays. […]
(ELISA stands for enzyme-linked immunosorbent assay.)

What is called IC50 is the concentration that inhibits the measured activity by half. As for `COc1cc(/C=C2\CCCN(C3Cc4ccc(F)cc4C3)C2=O)ccc1-n1cnc(C)c1` [Example 991, (E)-1-[(2S) and (2R)-5-fluoroindan-2-yl]-3-[3-methoxy-4-(4-methyl-1H-imidazol-1-yl)benzylidene]piperidin-2-one], the IC50 is 60 nM.
The same measure for `COc1cc(/C=C2\CCCN(C3CCc4ccccc4C3)C2=O)ccc1-n1cnc(C)c1` (stereo not shown) [Example 1014, (E)-3-[3-methoxy-4-(4-methyl-1H-imidazol-1-yl)benzylidene]-1-[(2R and 2S)-1,2,3,4-tetrahydronaphthalen-2-yl]piperidin-2-one]: 60 nM; for `COc1cc(/C=C2\CCCN(C3CCOc4cc(F)ccc43)C2=O)ccc1-n1cnc(C)c1` [Example 1025, (E)-1-[(4R) and (4S)-7-fluorochroman-4-yl]-3-[3-methoxy-4-(4-methyl-1H-imidazol-1-yl)benzylidene]piperidin-2-one]: 70 nM.
In the case of `COc1cc(/C=C2\CCCN(C3COc4ccccc4C3)C2=O)ccc1-n1cnc(C)c1` (stereo not shown) [Example 1027, (E)-1-[(3R and 3S)-chroman-3-yl]-3-[3-methoxy-4-(4-methyl-1H-imidazol-1-yl)benzylidene]piperidin-2-one], the IC50 was found to be 71 nM.
